Reference: US20030203373A1 (priority 2002, published 2003)
“And” between values parts separate entries of the source, which are not always exact repeats. Equal values may be shown once.

Target: T1, ACE from pig kidney (Sus scrofa, UniProt F1RRW5)
T1 construct: 1 mU ACE from pig kidney (EC 3.4.15.1 (Sigma)); purchased Sigma; host or cells: pig kidney (tissue-derived enzyme)
T1 sequence (F1RRW5 34-1309): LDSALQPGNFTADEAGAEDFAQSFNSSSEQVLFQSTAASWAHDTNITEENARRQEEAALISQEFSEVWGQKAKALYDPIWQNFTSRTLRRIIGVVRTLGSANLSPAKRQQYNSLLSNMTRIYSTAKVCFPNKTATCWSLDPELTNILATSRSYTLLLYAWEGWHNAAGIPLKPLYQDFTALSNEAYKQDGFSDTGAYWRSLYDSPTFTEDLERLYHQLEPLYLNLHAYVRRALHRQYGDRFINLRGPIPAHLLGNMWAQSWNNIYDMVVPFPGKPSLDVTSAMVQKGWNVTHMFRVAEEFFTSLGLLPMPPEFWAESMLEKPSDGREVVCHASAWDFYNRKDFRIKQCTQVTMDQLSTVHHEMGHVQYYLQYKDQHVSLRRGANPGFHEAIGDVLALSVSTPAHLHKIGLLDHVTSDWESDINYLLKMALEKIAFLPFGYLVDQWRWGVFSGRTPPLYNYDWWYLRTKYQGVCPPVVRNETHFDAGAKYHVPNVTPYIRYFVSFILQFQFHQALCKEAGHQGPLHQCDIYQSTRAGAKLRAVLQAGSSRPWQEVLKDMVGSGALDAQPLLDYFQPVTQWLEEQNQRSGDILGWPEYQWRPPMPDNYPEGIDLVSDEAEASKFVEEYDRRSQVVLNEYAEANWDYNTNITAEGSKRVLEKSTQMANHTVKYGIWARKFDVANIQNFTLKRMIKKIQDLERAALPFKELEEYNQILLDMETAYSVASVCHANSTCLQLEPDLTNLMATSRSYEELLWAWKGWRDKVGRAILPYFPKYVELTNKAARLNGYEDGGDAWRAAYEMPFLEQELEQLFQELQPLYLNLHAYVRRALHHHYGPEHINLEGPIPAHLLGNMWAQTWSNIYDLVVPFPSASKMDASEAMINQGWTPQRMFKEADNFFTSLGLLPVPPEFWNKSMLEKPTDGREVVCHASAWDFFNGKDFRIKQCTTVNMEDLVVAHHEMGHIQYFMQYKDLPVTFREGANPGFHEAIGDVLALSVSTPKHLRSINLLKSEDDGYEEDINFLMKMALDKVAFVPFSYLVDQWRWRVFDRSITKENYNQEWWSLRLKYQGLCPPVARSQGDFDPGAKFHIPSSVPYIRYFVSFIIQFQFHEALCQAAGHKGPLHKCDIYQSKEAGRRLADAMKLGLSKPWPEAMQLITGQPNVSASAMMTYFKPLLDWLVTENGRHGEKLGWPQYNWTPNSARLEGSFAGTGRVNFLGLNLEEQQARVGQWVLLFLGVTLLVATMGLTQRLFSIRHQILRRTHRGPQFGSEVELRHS
Test: biochemical
Assay type: biochemical
How it was run: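 Pig kidney ACE (1 mU) in 25 mM HEPES, 0,3 M NaCl, pH 8,2 was mixed with inhibitor solutions (0,35-200 μM) and started with 2 mM hippuryl-histidyl-leucine solution. After 30 min at 22° C the reaction was stopped with NaOH and the product derivatized with ortho-phthalaldehyde for fluorescence. IC50 was read graphically from % inhibition curves.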

[1] = inhibitor 0.78125 μM, replicates A-D
[2] = inhibitor 1.5625 μM, replicates A-D
[3] = inhibitor 3.125 μM, replicates A-D
[4] = inhibitor 6.25 μM, replicates A-D
[5] = inhibitor 12.5 μM, replicates A-D
[6] = inhibitor 25 μM, replicates A-D
[7] = inhibitor 50 μM, replicates A-D
[8] = inhibitor 100 μM, replicates A-D
[9] = inhibitor 200 μM, replicates A-D

Which IC50 (ACE from pig kidney, determined graphically, read-out: IC50-value (ACE inhibition)) does the source give for `CC(C)C[C@H](NC(=O)[C@H](C)N)C(=O)N[C@@H](CO)C(=O)N1CCC[C@H]1C(=O)N[C@@H](CC(C)C)C(=O)N1CCC[C@H]1C(=O)N[C@@H](CCC(=O)O)C(=O)N[C@H](C(=O)N1CCC[C@H]1C(=O)N1CCC[C@H]1C(=O)O)C(C)C` [Peptide S545] here?
Its IC50 is 2400 nM.

What about the “fluorescence reading (ACE Inhibitor Assay)” value (inhibitor 0.39 μM, replicates A-D) of the same compound?
Its value is 811412 and 841911 and 876502 and 774338.

And the “% inhibition (ACE Inhibitor Assay)” value (inhibitor 0.39 μM, replicates A-D, 0.39 µM)?
The value was 12.66% and 9.36% and 5.61% and 16.67%.

What about the “fluorescence reading (ACE Inhibitor Assay)” value [1] of the same compound?
The value was 726277 and 720995 and 719037 and 692816.

What about the inhibition at 0.78125 µM [1] of the same compound?
The inhibition at 0.78125 µM was 21.9%.

What about the “% inhibition (ACE Inhibitor Assay)” value (inhibitor 0.78125 μM, replicates A-D, 0.78125 µM) of the same compound?
Its value is 22.45% and 22.66% and 25.5%.

What about the “fluorescence reading (ACE Inhibitor Assay)” value [2] of the same compound?
Its value is 541353 and 551184 and 577933 and 551569.

And the inhibition at 1.5625 µM [2]?
The inhibition at 1.5625 µM was 41.9%.

And the “% inhibition (ACE Inhibitor Assay)” value (inhibitor 1.5625 μM, replicates A-D, 1.5625 µM)?
The value was 40.85% and 37.95% and 40.8%.

And the “fluorescence reading (ACE Inhibitor Assay)” value [3]?
Its value is 405396 and 408086 and 447790 and 392263.

What about the inhibition at 3.125 µM [3] of the same compound?
The inhibition at 3.125 µM was 56.6%.

And the “% inhibition (ACE Inhibitor Assay)” value (inhibitor 3.125 μM, replicates A-D, 3.125 µM)?
Its value is 56.36% and 52.05% and 58.06%.

What about the “fluorescence reading (ACE Inhibitor Assay)” value [4] of the same compound?
The value was 251538 and 279216 and 263340 and 250076.

And the inhibition at 6.25 µM [4]?
Its inhibition at 6.25 µM is 73.3%.

And the “% inhibition (ACE Inhibitor Assay)” value (inhibitor 6.25 μM, replicates A-D, 6.25 µM)?
The value was 70.3% and 72.02% and 73.46%.

And the “fluorescence reading (ACE Inhibitor Assay)” value [5]?
The value was 174037 and 177324 and 175378 and 177772.

And the inhibition at 12.5 µM [5]?
Its inhibition at 12.5 µM is 81.7%.

What about the “% inhibition (ACE Inhibitor Assay)” value (inhibitor 12.5 μM, replicates A-D, 12.5 µM) of the same compound?
Its value is 81.34% and 81.55% and 81.29%.

What about the “fluorescence reading (ACE Inhibitor Assay)” value [6] of the same compound?
The value was 108586 and 113328 and 113458 and 104078.

And the inhibition at 25 µM [6]?
The inhibition at 25 µM was 88.8%.

And the “% inhibition (ACE Inhibitor Assay)” value (inhibitor 25 μM, replicates A-D, 25 µM)?
The value was 88.27% and 88.26% and 89.27%.

And the “fluorescence reading (ACE Inhibitor Assay)” value [7]?
The value was 53158 and 63009 and 54447 and 48696.

What about the inhibition at 50 µM [7] of the same compound?
Its inhibition at 50 µM is 94.8%.

What about the “% inhibition (ACE Inhibitor Assay)” value (inhibitor 50 μM, replicates A-D, 50 µM) of the same compound?
The value was 93.72% and 94.65% and 95.27%.

What about the “fluorescence reading (ACE Inhibitor Assay)” value [8] of the same compound?
Its value is 28035 and 29130 and 30237 and 28568.

What about the inhibition at 100 µM [8] of the same compound?
Its inhibition at 100 µM is 97.5%.

What about the “% inhibition (ACE Inhibitor Assay)” value (inhibitor 100 μM, replicates A-D, 100 µM) of the same compound?
Its value is 97.39% and 97.27% and 97.45%.

And the “fluorescence reading (ACE Inhibitor Assay)” value [9]?
The value was 17677 and 17238 and 18084 and 18937.

What about the inhibition at 200 µM [9] of the same compound?
Its inhibition at 200 µM is 98.6%.

And the “% inhibition (ACE Inhibitor Assay)” value (inhibitor 200 μM, replicates A-D, 200 µM)?
Its value is 98.68% and 98.59% and 98.5%.

And the “fold higher dose necessary in the ACE-assay to reach the same effect as with Captopril” value (relative to Captopril)?
Its value is 1000 fold.
